Where two headings read alike, the source gives them in different places.

The target of one assay is T1, Human NPY2 receptor (Homo sapiens, UniProt P49146).
T1 sequence (P49146 1-381): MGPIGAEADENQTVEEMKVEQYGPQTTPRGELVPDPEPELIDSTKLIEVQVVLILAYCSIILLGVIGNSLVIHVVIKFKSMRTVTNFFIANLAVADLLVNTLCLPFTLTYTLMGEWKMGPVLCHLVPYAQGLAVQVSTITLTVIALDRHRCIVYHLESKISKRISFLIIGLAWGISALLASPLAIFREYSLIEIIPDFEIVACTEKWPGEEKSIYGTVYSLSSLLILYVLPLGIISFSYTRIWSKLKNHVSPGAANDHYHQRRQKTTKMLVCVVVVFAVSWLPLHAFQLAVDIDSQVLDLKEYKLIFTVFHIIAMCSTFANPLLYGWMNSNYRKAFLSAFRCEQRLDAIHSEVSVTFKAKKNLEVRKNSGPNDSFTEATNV
The assay is described as follows: Human NPY2 Receptor Binding Assay.

The target in another assay is T2, Human NPY5 Receptor (Homo sapiens, UniProt Q15761).
T2 sequence (Q15761 1-445): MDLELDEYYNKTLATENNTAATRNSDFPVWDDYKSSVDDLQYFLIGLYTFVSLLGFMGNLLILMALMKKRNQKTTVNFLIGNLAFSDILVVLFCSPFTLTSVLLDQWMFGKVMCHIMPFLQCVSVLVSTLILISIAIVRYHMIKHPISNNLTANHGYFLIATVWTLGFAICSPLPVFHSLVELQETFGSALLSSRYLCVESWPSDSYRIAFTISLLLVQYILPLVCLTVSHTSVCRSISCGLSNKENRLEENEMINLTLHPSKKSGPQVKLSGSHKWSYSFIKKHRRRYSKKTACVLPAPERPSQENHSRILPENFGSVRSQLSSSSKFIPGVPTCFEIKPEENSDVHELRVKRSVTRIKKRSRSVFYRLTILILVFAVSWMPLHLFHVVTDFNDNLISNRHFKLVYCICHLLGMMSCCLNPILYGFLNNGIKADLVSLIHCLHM
The assay can be described thus: Human NPY5 Receptor Binding Assay.

Where [1] appears, read: [125I]PYY, read-out: hPPY2 IC50.
The mark [2] stands for this setting: [125I]PYY, read-out: hNPY5 IC50.

Experimental for Human NPY5 Receptor: Human and Rat NPY5 Receptor Binding Assays
Binding assays are performed on GF/C Millipore 96-well plates pretreated with 0.02% polyethylenimine. The binding buffer is 25 mM Tris, 120 mM NaCl, 5 mM KCl, 1.2 mM KH2 PO4, 2.5 mM CaCl2, 1.2 mM MgSO4, 0.1% BSA and 0.5 mg/ml bacitracin, pH 7.4. Samples consist of membrane protein, 75-100 pM [125I]PYY (porcine, NEN-DuPont) and drug dilution. Nonspecific binding is defined by 1 μM PYY. After a 2 hour incubation at room temperature with constant mixing, the samples are aspirated on a vacuum manifold, and rinsed with ice-cold binding buffer. The amount of radioactivity in each well is quantitated with either gamma counting or liquid scintillation. IC50 values, which correspond to 50% inhibition of specific binding, are determined with non-linear regression analysis.

For the compound `O=C(CSc1nc2ccccc2s1)Nc1ccc(C(=O)c2ccccc2)cc1` [Compound 47, 2-(Benzothiazol-2-ylsulfanyl)-N-(4-benzoyl-phenyl)-acetamide], the IC50 (commonly the midpoint of a concentration-inhibition curve) on Human NPY2 receptor (setting [1]) was > 5 µM; on Human NPY5 Receptor (setting [2]), 3.8 µM.
For `Nc1nc(SCC(=O)Nc2ccc(C(=O)c3ccccc3)cc2)nc2[nH]ncc12` [Compound 69, 2-(4-Amino-1H-pyrazolo[3,4-d]pyrimidin-6-ylsulfanyl)-N-(4-benzoyl-phenyl)-acetamide], in that order: > 5 µM and 6.8 µM.
For `CC(=O)Nc1ccc(SCC(=O)Nc2ccc(C3CCCCC3)cc2)cc1` [Compound 54], in that order: > 5 µM and 2 µM.
For `Cc1cc(C)nc(SCC(=O)Nc2ccc(C(=O)c3ccccc3)cc2)n1` [Compound 72, N-(4-Benzoyl-yl)-2-(4,6-dimethyl-pyrimidin-2-ylsulfanyl)-acetamide], in that order: > 5 µM and 8.4 µM.
Consider `O=C(CSc1ccncc1)Nc1ccc(C(=O)c2ccccc2)cc1` [Compound 41, N-(4-Benzoyl-phenyl)-2-(pyridin-4-ylsulfanyl)-acetamide], for which the IC50 at Human NPY2 receptor was > 5 µM; on Human NPY5 Receptor (hNPY5 IC50, [125I]PYY), 0.33 µM.
As to `O=C(CSc1cccc[n+]1[O-])Nc1ccc(C(=O)c2ccccc2)cc1` [Compound 46, N-(4-Benzoyl-phenyl)-2-(1-oxy-pyridin-2-ylsulfanyl)-acetamide], the figures for the IC50 on Human NPY2 receptor (setting [1]) and at Human NPY5 Receptor (setting [2]) were > 5 µM and 0.3 µM, respectively.
Consider `Nc1n[nH]c(SCC(=O)Nc2ccc(C(=O)c3ccccc3)cc2)n1` [Compound 67, 2-(5-Amino-2H-[1,2,4]triazol-3-ylsulfanyl)-N-(4-benzoyl-phenyl)-acetamide], for which the values for the IC50 at Human NPY2 receptor (setting [1]) and at Human NPY5 Receptor (setting [2]) were > 5 µM and 7.6 µM, respectively.
For the compound `CC(=O)Nc1ccc(SCC(=O)Nc2ccc(C(=O)c3ccccc3)cc2)cc1` [Compound 64, 2-(-Acetylamino-phenylsulfanyl)-N-(4-benzoyl-phenyl)-acetamide], the IC50 is > 5 µM on Human NPY2 receptor (setting [1]) and 2.7 µM at Human NPY5 Receptor (setting [2]).
For `O=C(CSc1ncnc2nc[nH]c12)Nc1ccc(C(=O)c2ccccc2)cc1` [Compound 28, N-(4-Benzoyl-phenyl)-2-(7H-purin-ylsulfanyl)-acetamide], in that order: > 5 µM and > 10 µM.
For `Nc1nc(SCC(=O)Nc2ccc(C3CCCCC3)cc2)nc2[nH]ncc12` [Compound 59], in that order: > 5 µM and > 1 µM.
For `O=C(CSc1nc2cc([N+](=O)[O-])ccc2[nH]1)Nc1ccc(C(=O)c2ccccc2)cc1` [Compound 18, N-(4-Benzoyl-phenyl)-2-(5-nitro-1H-benzolmidazol-2-ylsulfanyl)-acetamide], in that order: > 5 µM and 0.2 µM.
Consider `O=C(CSc1nc2cc(Cl)ccc2s1)Nc1ccc(C(=O)c2ccccc2)cc1` [Compound 71, N-(4-Benzoyl-phenyl)-2-(5-chloro-benzothiazol-2-ylsulfanyl)-acetamide], for which the IC50 on Human NPY2 receptor (setting [1]) is > 5 µM; at Human NPY5 Receptor (setting [2]), 1.3 µM.
Consider `O=C(CSc1nc2cc([N+](=O)[O-])ccc2[nH]1)Nc1ccc(C2CCCCC2)cc1` [Compound 17, N-(4-Cyclohexyl-phenyl)-2-(5-nitro-1H-benzoimidazol-2-ylsulfanyl)-acetamide], for which the results for the IC50 at Human NPY2 receptor (setting [1]) and on Human NPY5 Receptor (setting [2]) were > 5 µM and 0.38 µM, respectively.
With `CCOc1ccc2nc(SCC(=O)Nc3ccc(C(=O)c4ccccc4)cc3)sc2c1` [Compound 60], the figures for the IC50 at Human NPY2 receptor (setting [1]) and on Human NPY5 Receptor (setting [2]) were > 5 µM and 2.1 µM, respectively.
The like results for `O=C(CSc1nc2ccccc2o1)Nc1ccc(C(=O)c2ccccc2)cc1` [Compound 48, 2-(Benzooxazol-2-ylsulfanyl)-N-(4-benzoyl-phenyl)-acetamide] were, in that order, > 5 µM and 3 µM.
For `Nc1nc(SCC(=O)Nc2ccc(C(=O)c3ccccc3)cc2)c2[nH]cnc2n1` [Compound 68, 2-(2-Amino-7H-purin-ylsulfanyl)-N-(4 benzoyl-phenyl)-acetamide], in that order: > 5 µM and 5 µM.
On to `O=C(CSc1nc2ccccc2c(=O)[nH]1)Nc1ccc(C2CCCCC2)cc1` [Compound 25, N-(4-Cyclohexyl-phenyl)-2-(4-oxo-3,-dihydro-quinazolin-2-ylsulfanyl)-acetamide], for which the IC50 on Human NPY2 receptor (setting [1]) is > 5 µM; on Human NPY5 Receptor (setting [2]), > 10 µM.
With `O=C(CSc1ccc(F)cc1)Nc1ccc(C(=O)c2ccccc2)cc1` [Compound 63, N-(4-Benzoyl-phenyl)-2-(4-fluoro-phenylsulfanyl)-acetamide], the IC50 on Human NPY2 receptor (setting [1]) was > 5 µM; on Human NPY5 Receptor (setting [2]) it was 0.65 µM.
For `Cc1ccc2[nH]c(SCC(=O)Nc3ccc(C4CCCCC4)cc3)nc2c1` [Compound 21, N-(4-Cyclohexyl-phenyl)-2-(5-methyl-1H-benzolmidazol-2-ylsulfanyl)-acetamide], in that order: > 5 µM and 0.43 µM.
For `O=C(CSc1ccncc1)Nc1ccc(C2CCCCC2)cc1` [Compound 50, N-(-clohexyl-phenyl)-2-(pyridin-4-ylsulfanyl)-acetamide], the IC50 on Human NPY2 receptor (setting [1]) was > 5 µM; on Human NPY5 Receptor (setting [2]), 0.053 µM.
For `O=C(CSC1=NCCS1)Nc1ccc(C2CCCCC2)cc1` [Compound 31], in that order: > 5 µM and 0.64 µM.
Take `O=C(CSc1nc2ccccc2o1)Nc1ccc(C2CCCCC2)cc1` [Compound 38, 2-(Benzooxazol-2-ylsulfanyl)-N-(-Cyclohexyl-phenyl)-acetamide]: the figures for the IC50 at Human NPY2 receptor (setting [1]) and on Human NPY5 Receptor (setting [2]) were > 5 µM and > 10 µM, respectively.
With `COc1ccc2[nH]c(SCC(=O)Nc3ccc(C(=O)c4ccccc4)cc3)nc2c1` [Compound 20, N-(4-Benzoyl-phenyl)-2-(5-methoxy-1H-benzolmidazol-2-ylsulfanyl)-acetamide], the IC50 at Human NPY2 receptor (setting [1]) was > 5 µM; on Human NPY5 Receptor (setting [2]), 0.42 µM.
As for `O=C(CSc1ncnc2c1ncn2[C@@H]1O[C@H](CO)[C@H](O)[C@H]1O)Nc1ccc(C(=O)c2ccccc2)cc1` [Compound 24, N-(4-Benzoyl-phenyl)-2-[9-((2R,3R,4R,5R)-3,4-dihydroxy-hydroxymethy-tetrahydro-furan-2-yl)-9H-purin-ylsulfanyl]-acetamide], the figures for the IC50 on Human NPY2 receptor (setting [1]) and at Human NPY5 Receptor (setting [2]) were > 5 µM and > 10 µM, respectively.
For `O=C(CSc1ncnc2[nH]ncc12)Nc1ccc(C2CCCCC2)cc1` [Compound 35, N-(4-Cyclohexyl-phenyl)-2-(1H-pyrazolo[3,4-d]pyrimidin-4-ylsulfanyl)-acetamide], in that order: > 5 µM and 3.6 µM.
The like results for `O=C(CSc1ccc(O)cc1)Nc1ccc(C(=O)c2ccccc2)cc1` [Compound 65] were, in that order, > 5 µM and 0.97 µM.
The like results for `O=C(CSc1ncccn1)Nc1ccc(C(=O)c2ccccc2)cc1` [Compound 49, N-(4-Benzoyl-phenyl)-2-(pyrimidin-2-ylsulfanyl)-cetarnide] were, in that order, > 5 µM and 1.6 µM.
For `O=C(CSc1nc2ccccc2s1)Nc1ccc(C2CCCCC2)cc1` [Compound 37, 2-(Benzothiazol-2-ylsulfanyl)-N-(4-cyclohexylphenyl)-acetamide], the results for the IC50 on Human NPY2 receptor (setting [1]) and at Human NPY5 Receptor (setting [2]) were > 5 µM and 1.7 µM, respectively.
The like results for `Cc1ccnc(SCC(=O)Nc2ccc(C(=O)c3ccccc3)cc2)n1` [Compound 30, N-(4-Benzoyl-phenyl)-2-(4-methyl-pyrimidin-2-ylsulfanyl)-acetamide] were, in that order, > 5 µM and 0.48 µM.
The like results for `Cc1ccc2[nH]c(SCC(=O)Nc3ccc(C(=O)c4ccccc4)cc3)nc2c1` [Compound 22, N-(4-Benzoyl-phenyl)-2-(5-methyl-1H-benzolmidazol-2-ylsulfanyl)-acetamide] were, in that order, > 5 µM and 0.31 µM.
Turning to `O=C(CSCC(O)CO)Nc1ccc(C(=O)c2ccccc2)cc1` (centres unmarked) [Compound 42, N-(4-Benzoyl-phenyl)-2-(2,3-dihydroxy-propylsulfanyl)-acetamide], the IC50 was > 5 µM on Human NPY2 receptor (setting [1]) and 1.5 µM on Human NPY5 Receptor (setting [2]).
For the compound `Cn1nnnc1SCC(=O)Nc1ccc(C(=O)c2ccccc2)cc1` [Compound 45, N-(4-Benzoyl-phenyl)-2-(1-methyl-1H-tetrazol-5-ylsulfanyl)-acetamide], the IC50 was > 5 µM on Human NPY2 receptor (setting [1]) and 0.17 µM on Human NPY5 Receptor (setting [2]).
As to `O=C(CSc1nnnn1-c1ccccc1)Nc1ccc(C(=O)c2ccccc2)cc1` [Compound 62, N-(4-Benzoyl-phenyl)-2-(1-phenyl-1H-tetrazol-5-ylsulfanyl)-acetamide], the IC50 is > 5 µM on Human NPY2 receptor (setting [1]) and 0.3 µM at Human NPY5 Receptor (setting [2]).
With `O=C(CSc1ncnc2[nH]ncc12)Nc1ccc(C(=O)c2ccccc2)cc1` [Compound 43, N-(4-Benzoyl-phenyl)-2-(1H-pyrazolo[3,4-d]pyrimidin-4-ylsulfanyl)-acetamide], the results for the IC50 at Human NPY2 receptor (setting [1]) and on Human NPY5 Receptor (setting [2]) were > 5 µM and 1.3 µM, respectively.

The record behind these values is patent publication US6245817A, “NPY5 receptor antagonists and methods for using same” (Bayer Corporation, priority 1999, dated 2001).
